For 20 molecules, GI50 results are on record in patent US9624229B2, “Pyrimidine-2-amine compounds and their use as inhibitors of JAK kinases” (Rigel Pharmaceuticals, Inc., priority 2008, dated 2017).

Chain of Ba/F3 V617F cells (O60674 whole entry V617F): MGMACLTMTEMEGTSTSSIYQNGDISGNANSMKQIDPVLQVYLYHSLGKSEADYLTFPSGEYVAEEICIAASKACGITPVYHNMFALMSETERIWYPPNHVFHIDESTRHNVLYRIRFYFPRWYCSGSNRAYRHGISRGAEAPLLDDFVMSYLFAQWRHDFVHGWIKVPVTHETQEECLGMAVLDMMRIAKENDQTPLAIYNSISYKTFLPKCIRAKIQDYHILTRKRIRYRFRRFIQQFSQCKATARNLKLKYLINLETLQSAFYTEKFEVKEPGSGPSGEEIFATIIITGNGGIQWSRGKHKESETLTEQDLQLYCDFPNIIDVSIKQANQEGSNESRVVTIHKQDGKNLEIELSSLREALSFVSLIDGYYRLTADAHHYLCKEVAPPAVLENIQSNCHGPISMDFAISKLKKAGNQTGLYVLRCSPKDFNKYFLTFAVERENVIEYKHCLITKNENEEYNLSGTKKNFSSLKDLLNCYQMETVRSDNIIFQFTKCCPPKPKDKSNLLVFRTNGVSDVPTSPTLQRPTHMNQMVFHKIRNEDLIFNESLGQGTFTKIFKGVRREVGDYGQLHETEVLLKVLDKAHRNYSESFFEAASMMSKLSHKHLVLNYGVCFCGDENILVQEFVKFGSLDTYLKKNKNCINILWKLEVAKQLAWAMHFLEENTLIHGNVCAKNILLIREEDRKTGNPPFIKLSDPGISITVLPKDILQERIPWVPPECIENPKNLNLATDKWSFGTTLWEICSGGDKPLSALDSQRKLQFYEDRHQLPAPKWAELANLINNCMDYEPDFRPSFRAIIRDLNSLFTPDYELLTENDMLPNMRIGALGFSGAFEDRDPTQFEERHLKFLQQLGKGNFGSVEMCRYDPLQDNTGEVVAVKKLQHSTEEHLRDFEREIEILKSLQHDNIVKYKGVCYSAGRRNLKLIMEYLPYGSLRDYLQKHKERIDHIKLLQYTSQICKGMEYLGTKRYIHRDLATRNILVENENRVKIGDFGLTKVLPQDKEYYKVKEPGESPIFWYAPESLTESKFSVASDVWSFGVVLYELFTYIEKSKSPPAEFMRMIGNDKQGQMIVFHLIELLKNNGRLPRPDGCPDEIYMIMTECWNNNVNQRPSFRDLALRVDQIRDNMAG

The first assay addresses Ba/F3 V617F cells (Homo sapiens, UniProt O60674, V617F, cells depend on it). Nature of the assay: Proliferation assay (Cell Titer-Glo, 72 h) utilizing Ba/F3 V617F cells. Type of assay: cell-based, mouse. To be noted: Ba/F3 V617F cells, proliferation, level of activity given as class symbol, read-out: IC50 (the source's name). In outline: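 Readout is CellTiter-Glo luminescence after 72 h at 37 °C, giving IC50. Cells: Ba/F3 V617F, 1×10^5 cells/mL in RPMI with 10% FBS, treated in duplicate with 3-fold dilution series made from 5 mM DMSO stock, 1:250 in 5% FBS medium, added at 2×.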
(In general: In ATP-based viability assays light output follows the ATP content of the culture.)
Take `CS(=O)(=O)N1CC2CC(c3ccc(Nc4nccc(-c5ccc(N6CCOCC6)nc5)n4)cc3)C1C2` (centres unmarked) [compound 229, 4-(6-(morpholin-4-yl)pyridin-3-yl)-N-(4-(2-methylsulfonyl-2-azabicyclo[2.2.1]heptan-6-yl)phenyl)pyrimidin-2-amine]: the GI50 fell in the range of 1 to 10 µM.
For the molecule `Cc1cc(Nc2nccc(-c3cnc4[nH]c5c(c4c3)CCCC5)n2)ccc1N1C[C@@H]2C[C@H]1CN2S(C)(=O)=O` [compound 268, 4-(6,7,8,9-tetrahydro-5H-pyrido[2,3-b]indol-3-yl)-N-(3-methyl-4-((1S,4S)-5-(methylsulfonyl)-2,5-diazabicyclo[2.2.1]heptan-2-yl)phenyl)pyrimidin-2-amine], the GI50 is 1 to 10 µM.

The assay is the same for the next values; noted with them: Ba/F3 V617F cells, proliferation, level of activity to inhibit JAK2, read-out: IC50 (the source's name).
Consider `Cc1cc(Nc2nccc(-c3ccc(-c4nnn[nH]4)nc3)n2)ccc1N1C[C@@H]2C[C@H]1CN2C` [compound 115, 4-(6-(1H-tetrazol-5-yl)pyridin-3-yl)-N-(3-methyl-4((1S,4S)-5-methyl-2,5-diazabicyclo[2.2.1]heptan-2-yl)phenyl)pyrimidin-2-amine], for which the GI50 lay in the range of 10 to 20 µM.
Regarding `CN1CCOc2cc(-c3ccnc(Nc4ccc(N5C[C@@H]6C[C@H]5CN6C)c(F)c4)n3)cnc21` [compound 9, 4-(4-methyl-3,4-dihydro-2H-pyrido[3,2-b][1,4]oxazin-7-yl)-N-(3-fluoro-4-((1S,4S)-5-methyl-2,5-diazabicyclo[2.2.1]heptan-2-yl)phenyl)pyrimidin-2-amine], the GI50 was under 1 µM.
Same read-out and setting: then `CC(=O)Nc1ccc(-c2ccnc(Nc3ccc(N4C[C@@H]5C[C@H]4CO5)c(C)c3)n2)cn1` [compound 147, 4-(6-(acetamido)pyridin-3-yl)-N-(3-methyl-4-((1S,4S)-5-oxa-2-azabicyclo[2.2.1]heptan-2-yl)phenyl)pyrimidin-2-amine], with under 1 µM.
On to `Cc1cc(-c2ccnc(Nc3ccc(N4CC5(C)CN(C)CC(C)(C4)C5)c(F)c3)n2)cnc1N1CCOCC1` [compound 82, 4-(5-methyl-6-(morpholin-4-yl)pyridin-3-yl)-N-(3-fluoro-4-(1,5,7-trimethyl-3,7-diazabicyclo[3.3.1]nonan-3-yl)phenyl)pyrimidin-2-amine], for which the GI50 was under 1 µM.
Consider `Cc1cc(Nc2nccc(-c3cnc4c(c3)OC(C)(C)C(=O)N4)n2)ccc1N1C[C@@H]2C[C@H]1CN2S(N)(=O)=O` [compound 38, 4-(2,2-dimethyl-3-oxo-3,4-dihydro-2H-pyrido[3,2-b][1,4]oxazin-7-yl)-N-(3-methyl-4-((1S,4S)-5-(aminosulfonyl)-2,5-diazabicyclo[2.2.1]heptan-2-yl)phenyl)pyrimidin-2-amine], for which the GI50 was under 1 µM.
`Cc1cc(Nc2nccc(-c3cc[nH]c3)n2)ccc1N1C[C@@H]2C[C@H]1CN2C` [compound 169, 4-(1H-pyrrol-3-yl)-N-(3-methyl-4-((1S,4S)-5-methyl-2,5-diazabicyclo[2.2.1]heptan-2-yl)phenyl)pyrimidin-2-amine]: the GI50 fell in the range of 1 to 10 µM.
With `CN1C(=O)C(C)(C)Oc2cc(-c3ccnc(Nc4ccc(N5C[C@@H]6C[C@H]5CN6C)c(F)c4)n3)cnc21` [compound 126, 4-(2,2,4-trimethyl-3-oxo-3,4-dihydro-2H-pyrido[3,2-b][1,4]oxazin-7-yl)-N-(3-fluoro-4-((1S,4S)-5-methyl-2,5-diazabicyclo[2.2.1]heptan-2-yl)phenyl)pyrimidin-2-amine], the GI50 is under 1 µM.
For `Cc1cc(Nc2nccc(-c3ccc4cc[nH]c4c3)n2)ccc1N1C[C@@H]2C[C@H]1CN2C` [compound 21, 4-(1H-indol-6-yl)-N-(3-methyl-4-((1S,4S)-5-methyl-2,5-diazabicyclo[2.2.1]heptan-2-yl)phenyl)pyrimidin-2-amine], the GI50 is under 1 µM.
Consider `Cc1cc(Nc2nccc(-c3ccc(N4CCOCC4)nc3)n2)ccc1N1CCN2CCC1CC2` [compound 159, 4-(6-(morpholin-4-yl)pyridin-3-yl)-N-(3-methyl-4-(1,4-diazabicyclo[3.2.2]nonan-4-yl)phenyl)pyrimidin-2-amine], for which the GI50 is under 1 µM.
On the same count and under the same terms, then `Cc1cc(Nc2nccc(-c3ccc4ncn(C)c4c3)n2)ccc1N1C[C@@H]2C[C@H]1CN2C` [compound 107, 4-(1-methylbenzimidazol-6-yl)-N-(3-methyl-4-((1S,4S)-5-methyl-2,5-diazabicyclo[2.2.1]heptan-2-yl)phenyl)pyrimidin-2-amine], with under 1 µM.
Take `Cc1cc(Nc2nccc(-c3ccc(C#N)nc3)n2)ccc1N1C[C@@H]2C[C@H]1CN2C` [compound 111, 4-(6-cyanopyridin-3-yl)-N-(3-methyl-4-((1S,4S)-5-methyl-2,5-diazabicyclo[2.2.1]heptan-2-yl)phenyl)pyrimidin-2-amine]: the GI50 was 1 to 10 µM.
On the same count and under the same terms, the figure for `Cc1cc(Nc2nccc(-c3ccc4nccn4c3)n2)ccc1N1C[C@@H]2C[C@H]1CN2C` [compound 103, 4-(imidazo[1,2-a]pyridin-6-yl)-N-(3-methyl-4-((1S,4S)-5-methyl-2,5-diazabicyclo[2.2.1]heptan-2-yl)phenyl)pyrimidin-2-amine] is under 1 µM; for `Cc1cc(Nc2ncc(F)c(-c3ccc(N(C)C)nc3)n2)ccc1N1C[C@@H]2C[C@H]1CN2C` [compound 4, 4-(6-(N,N-dimethylamino)pyridin-3-yl)-5-fluoro-N-(3-methyl-4-((1S,4S)-5-methyl-2,5-diazabicyclo[2.2.1]heptan-2-yl)phenyl)pyrimidin-2-amine] it is under 1 µM; for `Cc1cc(Nc2nccc(-c3ccc(NC(=O)C(C)(C)C)cc3)n2)ccc1N1CC2CCC(C1)N2C` [compound 168, 4-(4-(t-butylcarbonylamino)phenyl)-N-(3-methyl-4-(8-methyl-3,8-diazabicyclo[3.2.1]octan-3-yl)phenyl)pyrimidin-2-amine] it is under 1 µM.

Still in this assay, the particulars now being: inhibition of JAK2 activity, proliferation of Ba/F3 V617F cells, read-out: IC50 (the source's name).
Take `Cc1cc(Nc2nccc(-c3ccc(NS(C)(=O)=O)nc3)n2)cnc1N1C[C@@H]2C[C@H]1CN2C` [compound 154, 4-(6-(methylsulfonylamino)pyridin-3-yl)-N-(5-methyl-6-((1S,4S)-5-methyl-2,5-diazabicyclo[2.2.1]heptan-2-yl)pyridin-3-yl)pyrimidin-2-amine]: the GI50 was over 20 µM.
For the molecule `CN(C)c1ccc(-c2ccnc(Nc3ccc(N4C[C@@H]5C[C@H]4CN5C)nc3)n2)cn1` [compound 54, 4-(6-(dimethylamino)pyridin-3-yl)-N-(6-((1S,4S)-5-methyl-2,5-diazabicyclo[2.2.1]heptan-2-yl)pyridin-3-yl)pyrimidin-2-amine], the GI50 is 1 to 10 µM.
Same read-out and setting: the figure for `Cc1cc(Nc2nccc(-c3ccc(N(C)C)nc3)n2)cnc1N1C[C@@H]2C[C@H]1CN2C` [compound 61, 4-(6-(dimethylamino)pyridin-3-yl)-N-(5-methyl-6-((1S,4S)-5-methyl-2,5-diazabicyclo[2.2.1]heptan-2-yl)pyridin-3-yl)pyrimidin-2-amine] is under 1 µM; for `Cc1cc(Nc2nccc(-c3ccc(N4C[C@@H]5C[C@H]4CO5)nc3)n2)cnc1N1C[C@@H]2C[C@H]1CN2C` [compound 266, 4-(6-((1S,4S)-2-oxa-5-azabicyclo[2.2.1]heptan-5-yl)pyridin-3-yl)-N-(5-methyl-6-((1S,4S)-5-methyl-2,5-diazabicyclo[2.2.1]heptan-2-yl)pyridin-3-yl)pyrimidin-2-amine] it is under 1 µM.
